Where two headings read alike, the source gives them in different places.
Legend:
Format in all cases: biochemical
[1] = molecular target: T1, 320 wild-type protein kinases (Homo sapiens, UniProt O14757); conditions: singlicate
T1 sequence (O14757 1-476): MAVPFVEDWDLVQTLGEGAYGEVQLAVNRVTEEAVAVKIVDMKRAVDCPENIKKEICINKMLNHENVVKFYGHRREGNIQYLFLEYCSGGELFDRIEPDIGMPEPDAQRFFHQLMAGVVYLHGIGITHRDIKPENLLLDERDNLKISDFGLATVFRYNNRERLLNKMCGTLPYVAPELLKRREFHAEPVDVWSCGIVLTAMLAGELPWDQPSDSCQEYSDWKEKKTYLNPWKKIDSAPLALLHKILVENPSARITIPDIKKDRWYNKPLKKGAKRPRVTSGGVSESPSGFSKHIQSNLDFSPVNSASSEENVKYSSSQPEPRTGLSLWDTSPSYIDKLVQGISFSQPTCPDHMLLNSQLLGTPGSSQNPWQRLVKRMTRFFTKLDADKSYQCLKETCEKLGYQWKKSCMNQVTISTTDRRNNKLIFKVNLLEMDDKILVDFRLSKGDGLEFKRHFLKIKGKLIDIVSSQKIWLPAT
From the text: (§1) Table S4. Profiling of two compounds at two concentrations against 320 wild-type protein kinases; singlicate measurement; Residual activities (% of control).

[2] = molecular target: 320 wild-type protein kinases (Homo sapiens, UniProt P17612); conditions: PKA, singlicate
From the text: as §1

[3] = molecular target: T2, 320 wild-type protein kinases (Homo sapiens, UniProt P29322); conditions: singlicate
T2 sequence (P29322 28-1005): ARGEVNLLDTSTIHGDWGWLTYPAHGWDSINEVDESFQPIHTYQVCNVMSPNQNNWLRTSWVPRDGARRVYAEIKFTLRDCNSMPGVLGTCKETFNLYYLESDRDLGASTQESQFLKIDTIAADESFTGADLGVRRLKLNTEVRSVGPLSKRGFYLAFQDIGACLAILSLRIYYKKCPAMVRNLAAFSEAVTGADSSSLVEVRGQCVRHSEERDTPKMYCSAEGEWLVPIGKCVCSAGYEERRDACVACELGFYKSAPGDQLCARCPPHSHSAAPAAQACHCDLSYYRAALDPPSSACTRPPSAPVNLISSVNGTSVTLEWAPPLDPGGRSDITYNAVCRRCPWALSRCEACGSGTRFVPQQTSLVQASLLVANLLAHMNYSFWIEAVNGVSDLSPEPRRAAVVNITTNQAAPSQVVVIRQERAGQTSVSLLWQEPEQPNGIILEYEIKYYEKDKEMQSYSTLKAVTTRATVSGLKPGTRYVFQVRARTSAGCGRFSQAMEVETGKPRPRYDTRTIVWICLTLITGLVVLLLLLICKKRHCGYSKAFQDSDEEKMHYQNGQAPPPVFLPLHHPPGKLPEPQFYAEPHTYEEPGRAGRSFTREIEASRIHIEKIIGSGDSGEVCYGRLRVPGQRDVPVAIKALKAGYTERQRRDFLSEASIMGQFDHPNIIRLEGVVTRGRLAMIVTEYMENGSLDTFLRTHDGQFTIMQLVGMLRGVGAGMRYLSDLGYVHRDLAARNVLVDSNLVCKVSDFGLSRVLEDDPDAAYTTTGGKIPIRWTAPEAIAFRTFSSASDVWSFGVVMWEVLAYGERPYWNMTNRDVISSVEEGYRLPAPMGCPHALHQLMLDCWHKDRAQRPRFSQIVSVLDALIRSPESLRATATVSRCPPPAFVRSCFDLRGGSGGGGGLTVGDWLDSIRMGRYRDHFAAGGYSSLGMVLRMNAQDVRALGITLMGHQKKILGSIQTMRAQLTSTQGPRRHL
From the text: as §1

[4] = molecular target: 320 wild-type protein kinases (Homo sapiens, UniProt P48730); conditions: CK1-delta, singlicate
Chain of 320 wild-type protein kinases (Homo sapiens, UniProt P48730) (P48730 whole entry): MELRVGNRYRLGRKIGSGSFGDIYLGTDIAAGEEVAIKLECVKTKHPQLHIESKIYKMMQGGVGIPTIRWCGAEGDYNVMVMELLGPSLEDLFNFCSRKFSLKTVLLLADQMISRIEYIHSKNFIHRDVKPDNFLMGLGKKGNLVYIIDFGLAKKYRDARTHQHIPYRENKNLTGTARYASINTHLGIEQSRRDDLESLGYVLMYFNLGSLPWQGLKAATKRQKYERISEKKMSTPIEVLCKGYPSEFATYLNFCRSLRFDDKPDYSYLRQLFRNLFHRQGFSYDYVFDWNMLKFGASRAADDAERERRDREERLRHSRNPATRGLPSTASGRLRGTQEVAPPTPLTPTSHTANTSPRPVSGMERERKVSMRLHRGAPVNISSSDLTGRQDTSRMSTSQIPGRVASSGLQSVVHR
From the text: as §1

[5] = molecular target: 320 wild-type protein kinases (Homo sapiens, UniProt P49841); conditions: GSK3-beta, singlicate
Chain of 320 wild-type protein kinases (Homo sapiens, UniProt P49841) (P49841 whole entry): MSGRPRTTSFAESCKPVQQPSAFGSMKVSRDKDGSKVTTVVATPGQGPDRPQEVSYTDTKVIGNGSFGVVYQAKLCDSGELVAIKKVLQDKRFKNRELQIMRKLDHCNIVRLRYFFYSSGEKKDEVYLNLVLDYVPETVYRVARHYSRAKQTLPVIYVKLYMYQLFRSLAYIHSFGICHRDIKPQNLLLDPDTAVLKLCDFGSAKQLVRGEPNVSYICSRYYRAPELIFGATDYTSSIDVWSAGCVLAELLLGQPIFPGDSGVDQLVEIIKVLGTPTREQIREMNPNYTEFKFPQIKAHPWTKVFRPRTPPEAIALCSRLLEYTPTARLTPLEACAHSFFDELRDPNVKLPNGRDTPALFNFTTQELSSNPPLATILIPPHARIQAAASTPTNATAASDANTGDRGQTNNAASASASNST
From the text: as §1

[6] = molecular target: 320 wild-type protein kinases (Homo sapiens, UniProt Q5VT25); conditions: CDC42BPA, singlicate
Chain of 320 wild-type protein kinases (Homo sapiens, UniProt Q5VT25) (Q5VT25 whole entry): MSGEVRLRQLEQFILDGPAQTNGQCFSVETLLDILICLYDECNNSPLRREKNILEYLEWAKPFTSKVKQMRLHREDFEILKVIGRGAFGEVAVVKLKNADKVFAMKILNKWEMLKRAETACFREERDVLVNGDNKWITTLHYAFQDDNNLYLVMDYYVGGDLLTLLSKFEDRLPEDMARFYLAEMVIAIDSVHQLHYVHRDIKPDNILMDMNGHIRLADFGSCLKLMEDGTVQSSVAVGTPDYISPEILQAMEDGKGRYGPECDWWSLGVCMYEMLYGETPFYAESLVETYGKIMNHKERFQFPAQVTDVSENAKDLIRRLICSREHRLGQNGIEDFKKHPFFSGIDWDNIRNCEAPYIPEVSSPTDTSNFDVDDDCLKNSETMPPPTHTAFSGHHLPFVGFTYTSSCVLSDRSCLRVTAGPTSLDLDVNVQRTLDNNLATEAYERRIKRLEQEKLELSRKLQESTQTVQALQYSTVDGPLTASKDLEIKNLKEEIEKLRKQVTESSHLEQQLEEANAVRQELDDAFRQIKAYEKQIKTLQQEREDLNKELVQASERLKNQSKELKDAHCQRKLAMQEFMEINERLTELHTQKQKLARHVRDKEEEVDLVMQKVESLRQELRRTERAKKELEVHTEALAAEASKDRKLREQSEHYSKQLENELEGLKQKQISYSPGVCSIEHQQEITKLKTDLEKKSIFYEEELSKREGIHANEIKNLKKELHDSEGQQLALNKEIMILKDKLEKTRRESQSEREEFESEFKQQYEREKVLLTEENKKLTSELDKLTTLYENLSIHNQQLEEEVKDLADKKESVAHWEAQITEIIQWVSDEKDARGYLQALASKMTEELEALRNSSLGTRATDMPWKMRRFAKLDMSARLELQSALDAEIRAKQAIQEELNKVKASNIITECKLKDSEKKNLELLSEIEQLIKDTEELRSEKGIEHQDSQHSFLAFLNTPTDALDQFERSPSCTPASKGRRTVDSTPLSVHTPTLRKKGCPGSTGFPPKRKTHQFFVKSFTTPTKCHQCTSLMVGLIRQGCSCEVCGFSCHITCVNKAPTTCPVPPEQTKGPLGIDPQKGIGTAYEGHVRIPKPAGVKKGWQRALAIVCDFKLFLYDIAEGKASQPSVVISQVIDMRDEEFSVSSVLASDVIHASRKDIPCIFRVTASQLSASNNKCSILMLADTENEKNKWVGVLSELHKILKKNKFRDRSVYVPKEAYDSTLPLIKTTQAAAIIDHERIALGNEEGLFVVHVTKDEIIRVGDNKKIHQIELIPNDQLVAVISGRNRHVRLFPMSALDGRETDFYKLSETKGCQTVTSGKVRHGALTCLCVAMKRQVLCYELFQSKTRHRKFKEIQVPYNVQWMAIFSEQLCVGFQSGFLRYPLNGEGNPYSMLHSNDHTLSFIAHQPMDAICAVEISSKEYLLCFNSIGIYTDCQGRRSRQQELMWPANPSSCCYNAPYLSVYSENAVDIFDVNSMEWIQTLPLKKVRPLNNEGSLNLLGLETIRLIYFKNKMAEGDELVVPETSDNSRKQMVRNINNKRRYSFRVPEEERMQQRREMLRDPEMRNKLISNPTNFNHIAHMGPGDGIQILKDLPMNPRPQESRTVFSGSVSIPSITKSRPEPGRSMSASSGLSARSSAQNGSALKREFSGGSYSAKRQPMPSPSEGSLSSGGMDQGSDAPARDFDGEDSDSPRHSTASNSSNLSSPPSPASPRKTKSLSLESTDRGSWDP
From the text: as §1

[7] = molecular target: T3, 320 wild-type protein kinases (Homo sapiens, UniProt Q8TD08); conditions: singlicate
T3 sequence (Q8TD08 1-544): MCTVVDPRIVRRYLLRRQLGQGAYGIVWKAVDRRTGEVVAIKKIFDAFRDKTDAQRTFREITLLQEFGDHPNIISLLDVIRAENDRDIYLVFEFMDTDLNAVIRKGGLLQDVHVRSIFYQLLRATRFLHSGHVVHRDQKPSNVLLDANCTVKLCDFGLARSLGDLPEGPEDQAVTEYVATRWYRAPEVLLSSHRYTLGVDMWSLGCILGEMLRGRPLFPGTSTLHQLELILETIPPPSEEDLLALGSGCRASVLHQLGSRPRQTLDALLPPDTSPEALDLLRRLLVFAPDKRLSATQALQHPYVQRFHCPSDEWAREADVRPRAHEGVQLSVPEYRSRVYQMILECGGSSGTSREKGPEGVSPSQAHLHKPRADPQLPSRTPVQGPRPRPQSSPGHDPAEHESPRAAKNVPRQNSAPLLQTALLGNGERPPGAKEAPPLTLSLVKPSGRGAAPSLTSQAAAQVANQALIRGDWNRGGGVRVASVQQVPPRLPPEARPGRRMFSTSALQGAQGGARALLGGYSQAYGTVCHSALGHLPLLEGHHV
From the text: as §1

SMILES | Residual activity ([1]; CHK1, 1.0E-06 M) | Residual activity ([1]; CHK1, 1.0E-07 M) | Residual activity ([2]; 1.0E-06 M) | Residual activity ([2]; 1.0E-07 M) | Residual activity ([3]; EPHA8, 1.0E-06 M) | Residual activity ([3]; EPHA8, 1.0E-07 M) | Residual activity ([4]; 1.0E-06 M) | Residual activity ([4]; 1.0E-07 M) | Residual activity ([5]; 1.0E-06 M) | Residual activity ([5]; 1.0E-07 M) | Residual activity ([6]; 1.0E-06 M) | Residual activity ([6]; 1.0E-07 M) | Residual activity ([7]; ERK7, 1.0E-06 M) | Residual activity ([7]; ERK7, 1.0E-07 M)
C#Cc1cc(Nc2ncnc3cc(I)ccc23)ccc1Cl [Compound 41] | 85 % of control | 94 % of control | 82 % of control | 88 % of control | 118 % of control | 110 % of control | 115 % of control | 134 % of control | 84 % of control | 96 % of control | 141 % of control | 140 % of control | 96 % of control | 94 % of control
C#Cc1cc(Nc2ncnc3cc(OC)c(OC)cc23)ccc1Cl [Compound 45] | 74 % of control | 94 % of control | 90 % of control | 93 % of control | 103 % of control | 112 % of control | 111 % of control | 129 % of control | 85 % of control | 84 % of control | 113 % of control | 114 % of control | 90 % of control | 104 % of control
